Reference: ChEMBL document CHEMBL3045015, “Synthesis and physiological evaluation of new N-nitroso-2,6-dicarbethoxy-3,5-diaryltetrahydro-1,4-thiazine-1,1-dioxides” (Med Chem Res, 2012)

Key:
Streptococcus pyogenes [1] = assay: Ratio of compound IZ to amikacin IZ for Streptococcus pyogenes MTCC 389 at 10 ug/ml by disk diffusion method; format: functional
Staphylococcus aureus [2] = assay: Ratio of compound IZ to amikacin IZ for Staphylococcus aureus MTCC 96 at 10 ug/ml by disk diffusion method; format: functional
Mus musculus = assay: Acute toxicity in Mus musculus (mouse) at 300 mg/kg; format: organism-based; parameters: dose 300 mg/kg; conditions: in vivo
Candida albicans [3] = assay: Antifungal activity against Candida albicans MTCC 227 at 10 ug/ml by disk diffusion method; format: functional; conditions: read-out: IZ
Pseudomonas aeruginosa [4] = assay: Antibacterial activity against Pseudomonas aeruginosa […] at 10 ug/ml by disk diffusion method; format: functional; conditions: read-out: IZ
Escherichia coli [5] = assay: Antibacterial activity against Escherichia coli MTCC 722 at 10 ug/ml by disk diffusion method; format: functional; conditions: read-out: IZ
Streptococcus pyogenes [6] = assay: Antibacterial activity against Streptococcus pyogenes MTCC 389 at 10 ug/ml by disk diffusion method; format: functional; conditions: read-out: IZ
Staphylococcus aureus [7] = assay: Antibacterial activity against Staphylococcus aureus MTCC 96 at 10 ug/ml by disk diffusion method; format: functional; conditions: read-out: IZ
Candida albicans [8] = assay: Ratio of compound IZ to nystatin IZ for Candida albicans MTCC 227 at 10 ug/ml by disk diffusion method; format: functional
Pseudomonas aeruginosa [9] = assay: Ratio of compound IZ to amikacin IZ for Pseudomonas aeruginosa […] at 10 ug/ml by disk diffusion method; format: functional
Escherichia coli [10] = assay: Ratio of compound IZ to amikacin IZ for Escherichia coli MTCC 722 at 10 ug/ml by disk diffusion method; format: functional

| Structure (SMILES) | Ratio (Streptococcus pyogenes [1]) | Ratio (Staphylococcus aureus [2]) | Activity (Mus musculus) | zone of inhibition at 10 µg/mL (Candida albicans [3]) [mm] | zone of inhibition at 10 µg/mL (Pseudomonas aeruginosa [4]) [mm] | zone of inhibition at 10 µg/mL (Escherichia coli [5]) [mm] | zone of inhibition at 10 µg/mL (Streptococcus pyogenes [6]) [mm] | zone of inhibition at 10 µg/mL (Staphylococcus aureus [7]) [mm] | Ratio (Candida albicans [8]) | Ratio (Pseudomonas aeruginosa [9]) | Ratio (Escherichia coli [10]) |
| --- | --- | --- | --- | --- | --- | --- | --- | --- | --- | --- | --- |
| CCOC(=O)C1C(c2cccc([N+](=O)[O-])c2)N(N=O)C(c2cccc([N+](=O)[O-])c2)C(C(=O)OCC)S1(=O)=O (configuration not stated) | 0.45 | 0.67 | Non-toxic | 13 | 15 | 14 | 9 | 12 | 0.69 | 0.88 | 0.82 |
| CCOC(=O)C1C(c2cc3ccccc3nc2Cl)N(N=O)C(c2cc3ccccc3nc2Cl)C(C(=O)OCC)S1(=O)=O (configuration not stated) | 0.6 | 0.78 | Non-toxic | 18 | 10 | 9 | 12 | 14 | 0.95 | 0.59 | 0.53 |
| CCOC(=O)C1C(c2c[nH]c3ccccc23)N(N=O)C(c2c[nH]c3ccccc23)C(C(=O)OCC)S1(=O)=O (configuration not stated) | 0.45 | 0.44 | Non-toxic | 15 | 11 | 12 | 9 | 8 | 0.79 | 0.65 | 0.71 |
| CCOC(=O)C1C(c2ccc3c(c2)OCO3)N(N=O)C(c2ccc3c(c2)OCO3)C(C(=O)OCC)S1(=O)=O (configuration not stated) | 0.55 | 0.5 | Non-toxic | 10 | 12 | 8 | 11 | 9 | 0.53 | 0.71 | 0.47 |
| CCOC(=O)C1C(c2ccc(Cl)cc2)N(N=O)C(c2ccc(Cl)cc2)C(C(=O)OCC)S1(=O)=O (configuration not stated) | 0.5 | 0.56 | Non-toxic | 16 | 12 | 13 | 10 | 10 | 0.84 | 0.71 | 0.76 |
| CCOC(=O)C1C(c2ccc[nH]2)N(N=O)C(c2ccc[nH]2)C(C(=O)OCC)S1(=O)=O (configuration not stated) | 0.7 | 0.72 | Non-toxic | 11 | 12 | 11 | 14 | 13 | 0.58 | 0.71 | 0.65 |
| CCOC(=O)C1C(c2ccc([N+](=O)[O-])cc2)N(N=O)C(c2ccc([N+](=O)[O-])cc2)C(C(=O)OCC)S1(=O)=O (configuration not stated) | 0.85 | 0.72 | Non-toxic | 12 | 11 | 17 | 17 | 13 | 0.63 | 0.65 | 1 |
| CCOC(=O)C1C(c2ccccc2)N(N=O)C(c2ccccc2)C(C(=O)OCC)S1(=O)=O (configuration not stated) | 0.75 | 0.61 | Non-toxic | 13 | 13 | 12 | 15 | 11 | 0.69 | 0.76 | 0.71 |
| CCOC(=O)C1C(c2ccc(C)cc2)N(N=O)C(c2ccc(C)cc2)C(C(=O)OCC)S1(=O)=O (configuration not stated) | 0.85 | 0.61 | Non-toxic | 11 | 9 | 17 | 17 | 11 | 0.58 | 0.53 | 1 |
| NCC[C@H](O)C(=O)N[C@@H]1C[C@H](N)[C@@H](O[C@H]2O[C@H](CN)[C@@H](O)[C@H](O)[C@H]2O)[C@H](O)[C@H]1O[C@H]1O[C@H](CO)[C@@H](O)[C@H](N)[C@H]1O [AMIKACIN] | – | – | – | – | 17 | 17 | 20 | 18 | – | – | – |
| CCOC(=O)C1C(c2ccc(OC)cc2)N(N=O)C(c2ccc(OC)cc2)C(C(=O)OCC)S1(=O)=O (configuration not stated) | 0.65 | 0.61 | Non-toxic | 13 | 18 | 12 | 13 | 11 | 0.69 | 1.11 | 0.71 |
| CCOC(=O)C1C(c2cccnc2)N(N=O)C(c2cccnc2)C(C(=O)OCC)S1(=O)=O (configuration not stated) | 0.4 | 0.78 | Non-toxic | 15 | 11 | 12 | 8 | 14 | 0.79 | 0.65 | 0.71 |
| CCOC(=O)C1C(c2ccc(OC)c(OC)c2)N(N=O)C(c2ccc(OC)c(OC)c2)C(C(=O)OCC)S1(=O)=O (configuration not stated) | 0.4 | 0.67 | Non-toxic | 14 | 11 | 13 | 8 | 12 | 0.74 | 0.65 | 0.76 |
| CCOC(=O)C1C(c2cccs2)N(N=O)C(c2cccs2)C(C(=O)OCC)S1(=O)=O (configuration not stated) | 0.75 | 0.94 | Non-toxic | 20 | 14 | 13 | 15 | 17 | 1.11 | 0.82 | 0.76 |
| CCOC(=O)C1C(c2ccsc2)N(N=O)C(c2ccsc2)C(C(=O)OCC)S1(=O)=O (configuration not stated) | 0.45 | 0.83 | Non-toxic | 14 | 13 | 14 | 9 | 15 | 0.74 | 0.76 | 0.82 |
| CCOC(=O)C1C(c2ccccn2)N(N=O)C(c2ccccn2)C(C(=O)OCC)S1(=O)=O (configuration not stated) | 0.55 | 0.72 | Non-toxic | 12 | 9 | 10 | 11 | 13 | 0.63 | 0.53 | 0.59 |
| CCOC(=O)C1C(c2ccccc2Cl)N(N=O)C(c2ccccc2Cl)C(C(=O)OCC)S1(=O)=O (configuration not stated) | 0.5 | 0.5 | Non-toxic | 16 | 12 | 13 | 10 | 9 | 0.84 | 0.71 | 0.76 |
| CCOC(=O)C1C(c2cccc(Cl)c2)N(N=O)C(c2cccc(Cl)c2)C(C(=O)OCC)S1(=O)=O (configuration not stated) | 0.4 | 0.61 | Non-toxic | 15 | 10 | 14 | 8 | 11 | 0.79 | 0.59 | 0.82 |
| CCOC(=O)C1C(c2ccco2)N(N=O)C(c2ccco2)C(C(=O)OCC)S1(=O)=O (configuration not stated) | 0.55 | 0.67 | Non-toxic | 14 | 10 | 15 | 11 | 12 | 0.74 | 0.59 | 0.88 |
